# In patent US20190160035A1, “METHOD OF TREATMENT” (QBIOTICS LIMITED, priority 2016, published 2019):
# Entries after “also recorded” stand apart in the source; their conditions may differ.
# Tests used:
# Assay type in all cases: in vivo, dogs
# [1] = Example 2: serum biochemistry and haematology
# Excerpt: Individual blood samples were collected from the dogs into gel separated plain vacuettes at intervals outlined in Table 12. Plain blood samples were submitted on ice bricks by express courier to the local IDEXX laboratory which performed detailed biochemical analysis. Analysis included creatinine, protein, albumin, globulin, alkaline phosphatase, AST, gamma GT, creatine kinase, cholesterol, magnesium, calcium, phosphate, sodium, potassium, chloride, ALT, glucose, urea, amylase, bilirubin and triglycerides.
# Individual blood samples were collected from the dogs into anti-coagulated (EDTA and sodium citrate) vacutainers at intervals outlined in Table 12. Blood samples were then be submitted on ice bricks by express courier to the local IDEXX laboratory, which performed detailed haematological analysis. Analysis included red blood cell count, white cell count, packed cell volume, mean corpuscular volume, mean corpuscular haemoglobin, mean corpuscular haemoglobin concentration, white cell differential count, platelets, haemoglobin, reticulocytes, PT and APTT.
# [2] = tested on: cutaneous Mast Cell Tumor (MCT); assay: Example 2: dose de-escalation study (1.0, 0.5, 0.2 mg/mL; 0.5 mL per cm^3 tumor), RECIST v.1.1 tumor response; settings: for RECIST classification: Day 21, one value per dog
# Procedure: A multi-site, unmasked, uncontrolled, non-randomized dosage characterization study in dogs was performed under field conditions using dose de-escalation.
# Dogs were enrolled in the study as they presented to participating veterinary practices meeting the necessary eligibility criteria. As the study design was a dose de-escalation study, dogs were allocated to the highest dose initially (1.0 mg Compound 1 per mL). Each dose comprised a total cohort of 10 dogs participating across all clinics. Once the cohort of 10 dogs was treated at the highest dose, subsequent dogs were assigned to the 2nd cohort (0.5 mg Compound 1 per mL) and dosing continued through de-escalation until completion of 7 evaluable enrolments in the 3rd cohort (0.2 mg Compound 1 per mL).
# Each Compound 1 preparation (1.0, 0.5, and 0.2 mg/mL) was pre-prepared in a 30% propylene glycol, 30 mM Acetate buffer pH 4.0 solution.
# Compound 1 was administered to each dog at 0.5 mL per cm^3 of tumor volume as determined on the day of dosing. Digital calipers were used to measure tumor axes.
# Wherever possible, the tumor and a 2 cm border surrounding the tumor was shaved prior to treatment. To deliver the drug formulation, the needle of the dosing syringe was inserted into the tumor at the injection point and moved in a radial manner in 2- and 3-dimensions with approximately 0.1 mL of formulation delivered to each 0.2 cm^3 of tumor mass. Study dogs were clinically examined at approximately 24 and 48 hours, 7, 14 and 21 days post-treatment.
# Prophylactic and supportive medications considered for use in this study to prevent paraneoplastic MCT-induced adverse events such as Darier's sign and gastric upset included cetrizine, chlorpheniramine, omeprazole, acetylpromazine, methadone and meloxicam. Some supportive therapies were given up to 5 days post treatment (see Table 14). Additional approved supportive therapies (if required) included fentanyl (patch) or tramadol analgesia, or antibiotic (amoxicillin/clavulanic acid).
# Determination of efficacy was based on objective tumor measurements made according to the RECIST v.1.1 guidelines (Eisenhauer et al., 2009) using unidirectional tumor measurements.
# Pairwise comparison of categorical responses to treatment between treatment groups at each time point post-treatment were compared using Fisher's Exact Test. Using the RECIST classification (Eisenhauer et al., 2009), tumor data was analysed to determine the effectiveness of, and differences between, treatments. Generalised linear modeling was used to examine the combined effects of treatment dose, time post-treatment and other potentially explanatory variables. Generalised estimating equations with appropriate error structure (and controlled for repeated measurements of individuals) were used to examine categorical response to treatment and changes in tumor volume measurement. Tumor volume analysis was also controlled for pre-treatment tumor volume.
# MCT measurements were recorded using digital calipers. Measurements were taken pre-treatment and at 7(±1), 14(±1) and 21(±2) days post treatment. The length (cm) was designated the longest measurable axis; the width (cm) was the tumor at the widest point perpendicular to the length; gentle manipulation of the MCT to measure the depth (cm) using the calipers was considered acceptable. Determination of efficacy was based on objective tumor measurements made according to the RECIST v.1.1 guideline using the longest unidirectional measurement (Eisenhauer et al. 2009) recorded at each timepoint. RECIST criteria were only applied to target lesions as Compound 1 is not intended as a systemic therapy. […] RECIST v.1.1 results are summarized below in Table 18.
# [3] = tested on: soft tissue sarcoma (STS); assay: Example 6: treatment of soft tissue sarcoma with intratumoral Compound 1, tumor response; settings: per dog, Compound 1 1.0 mg/mL intratumoral, first treatment
# Excerpt: Dogs were selected for the study if they met the criteria in Table 1 (Example 1) but where the dog has at least one STS. Study dogs were managed with due regard for their welfare. All animals were client-owned, treated by Australian registered veterinarians, and cases managed under their direct supervision. An enrolled dog could be removed from the study prior to study completion under the following circumstances: • 1. If at any time during the study, in the opinion of the attending veterinarian, the dog's welfare is at risk due to non-response of the tumor to Compound 1 treatment or due to a serious adverse event, the veterinarian could elect to withdraw the dog from the study. Following withdrawal, the dog's attending veterinarian could then administer supportive treatment and veterinary care that they deem is appropriate and in the best interest of the animal. • 2. […]
# • 1. […] The total calculated volume of the selected STS was confirmed as ≤12.5 cm3 (determined as ½×length (cm)×width (cm)×depth (cm)). • 5. The calculated dose of drug for the dog was confirmed as ≤0.25 mg Compound 1 per kg at the Day 0 visit (maximum dose of 5 mg Compound 1). • 6. The drug was provided to veterinarians as a 1 mg/mL Compound 1 formulation in ready to use form. • 7. […] Treated tumors were observed regularly and observations recorded at days 1, 7 (+2), 14 (+2) and 28 (+2) days post-treatment. • 10. […]
compound,measurement,setting,value
"C/C=C(\C)C(=O)O[C@@H]1[C@@H](C)[C@@]2(O)[C@H]([C@@H]3C(C)(C)[C@]13OC(=O)[C@@H](C)CC)[C@@H]1O[C@]1(CO)[C@@H](O)[C@]1(O)C(=O)C(C)=C[C@H]12 [Compound 1, 12-tigloyl-13-(2-methylbutanoyl)-6,7-epoxy-4,5,9,12,13,20-hexahydroxy-1-tigliaen-3-one]",Anaemia during the course of the study,[1]; all cohorts,No dog exhibited anaemia
same,Bleeding disorder during the course of the study,[1]; all cohorts,No dog exhibited a bleeding disorder
same,Haematology observations,[1]; all cohorts,fairly unremarkable
same,Number of dogs with slightly elevated reticulocyte counts post treatment,[1]; all cohorts (27 dogs),7
same,Serum biochemistry observations,"[1]; all cohorts, exceptions dogs GCV-204 (AST, CK) and NVC-307 (transient AST, ALT)",fairly unremarkable
same,Number of dogs with slightly lower platelet counts post treatment,[1]; platelets described as ‘clumping’,5
same,Number of dogs with complete response (CR),"[2]; cohort 1, 1.0 mg/mL, 10 dogs",9
same,RECIST classification,"[2]; cohort 2, 0.5 mg Compound 1/mL","PR (partial response (PR, at least 30% decrease in the longest diameter of target lesion)); also recorded: PD (progressive disease (PD, greater than 20% increase in the target lesion))"
same,Number of dogs with complete response (CR),"[2]; cohort 2, 0.5 mg/mL, 10 dogs",5
same,Number of dogs with partial response (PR),"[2]; cohort 2, 0.5 mg/mL, 10 dogs",1
same,Number of dogs with progressive disease (PD),"[2]; cohort 2, 0.5 mg/mL, 10 dogs",1
same,RECIST classification,"[2]; cohort 3, 0.2 mg Compound 1/mL","PR (partial response (PR, at least 30% decrease in the longest diameter of target lesion))"
same,Number of dogs showing efficacy (greater than a 70% reduction in tumor volume at 21 days),"[2]; cohort 3, 0.2 mg/mL",< 3
same,Number of dogs with complete response (CR),"[2]; cohort 3, 0.2 mg/mL, 7 dogs",2
same,Number of dogs with partial response (PR),"[2]; cohort 3, 0.2 mg/mL, 7 dogs",1
same,Mitotic nuclei in post-surgical biopsy material of residual tumor,"[2]; dog GCV-107, cohort 1",no mitotic nuclei identified
same,Total tumor volume reduction (modified ellipsoidal calculation),"[2]; dog GCV-107, cohort 1, Day 21",36%
same,Unidirectional tumor measurement (length) decrease,"[2]; dog GCV-107, cohort 1, by Day 21",23%
same,RECIST classification,[3],"PR (partial response (PR, at least 30% decrease in the longest diameter of target lesion))"
